According to US9629828B2, “Methods of treating traveler's diarrhea and hepatic encephalopathy” (priority 2008, dated 2017):
Where “and” joins values, the source holds several entries; their conditions need not be identical. Equal values may be shown once. Entries after “also recorded” stand apart in the source; their conditions may differ.

Columns and labels:
[1] = Post approval adverse reactions; type: in vivo, human; details: post approval use
Source text: Because these reactions are reported voluntarily from a population of unknown size, estimates of frequency cannot be made.

[2] = system: subjects in remission from hepatic encephalopathy (HE); experiment: First study: HE-related, HE-caused and all-cause hospitalization; type: in vivo, human; details: for Probability of no HE-related hospitalization: Kaplan-Meier; for Probability of no HE-related hospitalization / Cumulative number of events (HE-related hospitalization) / Event probability (HE-related hospitalization during the treatment interval) / Number of events (HE-related hospitalization): ITT, N = 140
Source text: The analysis of time to first HE-related hospitalization was based on the comparison of time to hospitalization between rifaximin and placebo.
FIG. 9 illustrates time to first HE-related hospitalization (e.g., hospitalization directly resulting from HE or hospitalization caused by HE) by treatment group in the ITT population in the first study. Table 19 presents estimates of the proportions of subjects who had their first HE-related hospitalization over the course of the Treatment Period and results of statistical analyses. Subjects who discontinued prior to hospitalization due to HE and prior to completion of the 6-month treatment period were censored at the time of discontinuation. […] This hazard ratio represents a 50% reduction, when compared with placebo, in the risk of hospitalization due to HE during the 6-month treatment period.
FIG. 5 illustrates time to first HE-caused hospitalizations by treatment group in the first study.

[3] = clinical; details: human, in vivo
Source text: Results from the current study were compared with historical data from subjects with normal hepatic function.

[4] = system: epithelial cells; experiment: Effects of rifaximin on mammalian epithelial cells; type: cell-based
[5] = human
Description: The covariates chosen for the analysis are known indicators of hepatic and renal function. A visual diagnostic was performed to detect potential trends between covariates of interest and AUCτ, Cmax, and CL/F.

[6] = system: dogs; details: dog, in vivo
Description: However, plasma drug levels were not measured in these studies. […] The maximum plasma AUC0-8 hr values from the 6 month rat and 9 month dog toxicity studies (range: 42-127 ng·h/mL) was lower than the maximum plasma AUC0-8 hr values in cirrhotic patients (range: 19-306 ng·h/mL).

[7] = system: subjects with a history of recurrent, overt, episodic HE; experiment: Second study: hospitalization rates; type: in vivo, human
Source text: Normalizing for subject exposure, this represents a hospitalization rate of 0.60 event/PEY. A total of 59 were hospitalized due HE episodes (e.g., HE-caused). Normalizing for subject exposure, this represents an HE-caused hospitalization rate of 0.29 event/PEY. […] All subjects were capable of worsening over time, and 24/266 subjects (9.0%) did so by 1 or 2 grades.

[8] = system: subjects in remission from hepatic encephalopathy (HE); experiment: First study: HE-related, HE-caused and all-cause hospitalization; type: in vivo, human
[9] = biological target: T1, cytochrome P450 2D6 (Homo sapiens, UniProt P10635); experiment: In vitro cytochrome P450 inhibition; type: in vitro ADME; details: 2 to 200 ng/mL
T1 construct: from tissue; host or cells: human liver fractions
T1 sequence (P10635 whole entry): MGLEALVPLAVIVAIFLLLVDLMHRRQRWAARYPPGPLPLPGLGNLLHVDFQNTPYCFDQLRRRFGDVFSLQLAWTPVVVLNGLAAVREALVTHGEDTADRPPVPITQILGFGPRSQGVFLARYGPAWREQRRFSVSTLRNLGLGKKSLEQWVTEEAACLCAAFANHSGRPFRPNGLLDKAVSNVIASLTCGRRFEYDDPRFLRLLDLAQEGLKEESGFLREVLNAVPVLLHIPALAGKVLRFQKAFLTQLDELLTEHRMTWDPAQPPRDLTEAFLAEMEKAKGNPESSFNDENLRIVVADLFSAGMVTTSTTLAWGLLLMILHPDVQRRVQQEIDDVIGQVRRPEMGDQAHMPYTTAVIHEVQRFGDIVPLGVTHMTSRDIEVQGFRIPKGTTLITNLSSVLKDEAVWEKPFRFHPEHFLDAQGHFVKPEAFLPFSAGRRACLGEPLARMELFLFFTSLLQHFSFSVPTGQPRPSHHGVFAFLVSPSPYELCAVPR

[10] = system: subjects with a history of recurrent, overt, episodic HE; experiment: Second study (3002, open-label extension): breakthrough overt HE; type: in vivo, human
Description: Unlike the first study, subjects were not required to withdraw from the study after experiencing a breakthrough overt HE episode.
Conn scores and asterixis grades were assessed during the course of the study.
Therefore, the incidence of breakthrough overt HE over time during rifaximin therapy was evaluated. Table 24 presents breakthrough overt HE episodes by total number of HE episodes during the course of the study.
Most subjects in the second study (152 of 266) were also in the first study. […] The numbers of overt HE episodes experienced during the 6-month or 12-month intervals prior to the first study or prior to the second study were known.

[11] = biological target: P-glycoprotein (Homo sapiens, UniProt P08183); experiment: In vitro P-glycoprotein substrate study (efflux ratio, verapamil); type: in vitro ADME
Chain of P-glycoprotein (P08183 whole entry): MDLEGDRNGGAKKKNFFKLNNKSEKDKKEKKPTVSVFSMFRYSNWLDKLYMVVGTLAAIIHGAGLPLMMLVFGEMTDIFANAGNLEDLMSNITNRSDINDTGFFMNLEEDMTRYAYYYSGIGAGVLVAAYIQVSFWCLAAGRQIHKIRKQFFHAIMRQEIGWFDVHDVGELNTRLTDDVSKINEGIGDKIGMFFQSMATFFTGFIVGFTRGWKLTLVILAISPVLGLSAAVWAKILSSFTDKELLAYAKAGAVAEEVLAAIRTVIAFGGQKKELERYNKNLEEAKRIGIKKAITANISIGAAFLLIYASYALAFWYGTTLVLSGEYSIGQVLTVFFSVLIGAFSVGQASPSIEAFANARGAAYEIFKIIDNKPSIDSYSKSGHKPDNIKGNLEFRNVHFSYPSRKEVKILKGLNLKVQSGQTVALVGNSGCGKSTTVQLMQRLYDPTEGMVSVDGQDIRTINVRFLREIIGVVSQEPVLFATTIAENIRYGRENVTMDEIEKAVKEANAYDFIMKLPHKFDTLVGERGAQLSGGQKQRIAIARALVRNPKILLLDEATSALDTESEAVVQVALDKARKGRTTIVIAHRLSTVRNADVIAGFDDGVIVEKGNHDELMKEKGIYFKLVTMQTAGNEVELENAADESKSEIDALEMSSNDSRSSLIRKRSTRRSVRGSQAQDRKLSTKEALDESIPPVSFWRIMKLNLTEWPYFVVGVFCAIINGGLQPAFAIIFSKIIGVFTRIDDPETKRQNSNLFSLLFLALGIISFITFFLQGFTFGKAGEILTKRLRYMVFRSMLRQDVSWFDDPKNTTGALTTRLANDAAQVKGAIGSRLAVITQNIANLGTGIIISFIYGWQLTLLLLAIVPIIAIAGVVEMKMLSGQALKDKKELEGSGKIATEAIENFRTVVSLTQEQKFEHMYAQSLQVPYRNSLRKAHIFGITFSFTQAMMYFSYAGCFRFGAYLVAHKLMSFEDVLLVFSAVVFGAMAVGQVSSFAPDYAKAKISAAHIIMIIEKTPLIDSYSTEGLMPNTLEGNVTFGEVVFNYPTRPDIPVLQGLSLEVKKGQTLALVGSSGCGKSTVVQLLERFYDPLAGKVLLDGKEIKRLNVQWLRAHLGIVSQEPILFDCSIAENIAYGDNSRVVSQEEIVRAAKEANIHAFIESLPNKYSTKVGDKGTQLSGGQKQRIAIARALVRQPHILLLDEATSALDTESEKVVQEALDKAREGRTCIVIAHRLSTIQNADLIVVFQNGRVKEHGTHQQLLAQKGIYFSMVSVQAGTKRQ
Source text: Therefore, no clinically significant interactions with other drugs affected by P-glycoprotein are anticipated.

[12] = treatment interval 0 to <28 days
[13] = treatment interval 28 to <56 days
[14] = treatment interval 56 to <84 days
[15] = treatment interval 84 to <140 days
[16] = treatment interval 140 to <168 days

**Q.** With CO[C@H]1/C=C/O[C@@]2(C)Oc3c(C)c(O)c4c(O)c(c5c(nc6cc(C)ccn65)c4c3C2=O)NC(=O)/C(C)=C\C=C\[C@H](C)[C@H](O)[C@@H](C)[C@@H](O)[C@@H](C)[C@H](OC(C)=O)[C@@H]1C [rifaximin, (2S,16Z,18E,20S,21S,22R,23R,24R,25 S,26S,27S,28E)-5,6,21,23,25-pentahydroxy-27-methoxy-2,4,11,16,20,22,24,26-octamethyl-2,7-(epoxypentadeca-[1,11,13]trienimino)benzofuro[4,5-e]pyrido[1,2-á]-benzimidazole-1,15(2H)-dione,25-acetate] as the compound, how does the C. difficile-associated colitis [1] read?
**A.** have been reported

**Q.** And the “reduction in risk of HE-caused hospitalization vs placebo” value ([2]; 6-month treatment)?
**A.** 56%

**Q.** What about the “reduction in risk of HE-related hospitalization vs placebo” value ([2]; 6-month treatment) of the same compound?
**A.** 50%

**Q.** What about the “Probability of no HE-related hospitalization” value [2, 12] of the same compound?
**A.** 1.0000

**Q.** And the “Probability of no HE-related hospitalization” value [2, 13]?
**A.** 0.9711

**Q.** What about the “Probability of no HE-related hospitalization” value [2, 14] of the same compound?
**A.** 0.9411

**Q.** And the “Probability of no HE-related hospitalization” value [2, 15]?
**A.** 0.0904

**Q.** And the “Probability of no HE-related hospitalization” value [2, 16]?
**A.** 0.8665

**Q.** And the “Probability of no HE-related hospitalization” value ([2]; treatment interval ≧168 days)?
**A.** 0.8475

**Q.** What about the Survival ([2]; Table 4, N = 140, days r11-r21 as E901) of the same compound?
**A.** 1.0000 and 0.9564 and 0.9258 and 0.8848 and 0.8403 and 0.8108

**Q.** And the Survival ([2]; Table 17, days r10-r15 as E2201)?
**A.** 1.0000 and 0.9711 and 0.9411 and 0.9094 and 0.8665 and 0.8475

**Q.** What about the HE-caused hospitalization rate ([2]; first study) of the same compound?
**A.** 0.30 events/PEY

**Q.** What about the “HE-related hospitalization rate lower than placebo” value ([2]; in vivo) of the same compound?
**A.** 51%

**Q.** And the “reduction in risk of all-cause hospitalization vs placebo” value ([2]; in vivo)?
**A.** 30%

**Q.** And the “subjects with HE-caused hospitalizations” value ([2]; in vivo)?
**A.** 15 of 140

**Q.** What about the “subjects with all-cause hospitalization” value ([2]; in vivo) of the same compound?
**A.** 46 of 140

**Q.** What about the “time to first HE related hospitalization vs placebo (FIG. 3)” value ([2]; in vivo) of the same compound?
**A.** increased time to hospitalization

**Q.** And the HE-related hospitalization rate ([2]; normalized to exposure)?
**A.** 0.38 event/PEY

**Q.** What about the “Cumulative number of events (HE-related hospitalization)” value (shortened to “Cumulative number of events”) [2, 12] of the same compound?
**A.** 4

**Q.** What about the “Event probability (HE-related hospitalization during the treatment interval)” value [2, 12] of the same compound?
**A.** 0.03

**Q.** What about the “Number of events (HE-related hospitalization)” value [2, 12] of the same compound?
**A.** 4

**Q.** And the “Cumulative number of events” value [2, 13]?
**A.** 8

**Q.** What about the “Event probability (HE-related hospitalization during the treatment interval)” value [2, 13] of the same compound?
**A.** 0.03

**Q.** And the “Number of events (HE-related hospitalization)” value [2, 13]?
**A.** 4

**Q.** What about the “Cumulative number of events” value [2, 14] of the same compound?
**A.** 12

**Q.** And the “Event probability (HE-related hospitalization during the treatment interval)” value [2, 14]?
**A.** 0.03

**Q.** What about the “Number of events (HE-related hospitalization)” value [2, 14] of the same compound?
**A.** 4

**Q.** And the “Cumulative number of events” value [2, 15]?
**A.** 17

**Q.** What about the “Event probability (HE-related hospitalization during the treatment interval)” value [2, 15] of the same compound?
**A.** 0.05

**Q.** What about the “Number of events (HE-related hospitalization)” value [2, 15] of the same compound?
**A.** 5

**Q.** And the “Cumulative number of events” value [2, 16]?
**A.** 19

**Q.** And the “Event probability (HE-related hospitalization during the treatment interval)” value [2, 16]?
**A.** 0.02

**Q.** What about the “Number of events (HE-related hospitalization)” value [2, 16] of the same compound?
**A.** 2

**Q.** What about the “Cumulative number of events” value ([2]; treatment interval ≧168 days) of the same compound?
**A.** 19

**Q.** What about the “Event probability (HE-related hospitalization during the treatment interval)” value ([2]; treatment interval ≧168 days) of the same compound?
**A.** 0

**Q.** What about the “Number of events (HE-related hospitalization)” value ([2]; treatment interval ≧168 days) of the same compound?
**A.** 0

**Q.** What about the Cmax [3] of the same compound?
**A.** < 4 ng/mL

**Q.** And the AUC ([3]; 550 mg)?
**A.** 12.3 ng·h/mL

**Q.** What about the “effect on epithelial cells” value [4] of the same compound?
**A.** resistant to bacterial colonization and internalization

**Q.** And the “Regression estimate for AUCτ: Albumin” value [5]?
**A.** −0.0573

**Q.** What about the “Regression estimate for AUCτ: INR” value [5] of the same compound?
**A.** −1.7432

**Q.** And the “Regression estimate for AUCτ: Intercept” value [5]?
**A.** 8.4175

**Q.** And the “Regression estimate for AUCτ: Total Bilirubin” value [5]?
**A.** 0.0173

**Q.** And the “Regression estimate for CL/F: ALT” value [5]?
**A.** −0.0028

**Q.** And the “Regression estimate for CL/F: Albumin” value [5]?
**A.** 0.0783

**Q.** What about the “Regression estimate for CL/F: INR” value [5] of the same compound?
**A.** 2.5949

**Q.** What about the “Regression estimate for CL/F: Intercept” value [5] of the same compound?
**A.** −0.8934

**Q.** And the “Regression estimate for CL/F: Total Bilirubin” value [5]?
**A.** −0.0185

**Q.** What about the “Regression estimate for Cmax: ALT” value [5] of the same compound?
**A.** 0.0031

**Q.** And the “Regression estimate for Cmax: Albumin” value [5]?
**A.** −0.0515

**Q.** What about the “Regression estimate for Cmax: INR” value [5] of the same compound?
**A.** −2.0654

**Q.** What about the “Regression estimate for Cmax: Intercept” value [5] of the same compound?
**A.** 6.5350

**Q.** What about the “Regression estimate for Cmax: Total Bilirubin” value [5] of the same compound?
**A.** 0.0207

**Q.** And the toxic effects [6]?
**A.** negligible toxic effects

**Q.** And the “subjects hospitalized due HE episodes” value ([7]; in vivo)?
**A.** 59 subjects

**Q.** What about the “subjects hospitalized for any cause” value ([7]; in vivo) of the same compound?
**A.** 133 of 266

**Q.** And the HE-caused hospitalization rate ([7]; second study)?
**A.** 0.29 event/PEY

**Q.** What about the all-cause hospitalization rate [8] of the same compound?
**A.** 0.92 events/PEY and 0.90 events/PEY

**Q.** And the “inhibition of 2D6” value [9]?
**A.** did not inhibit

**Q.** And the “Subjects with ≧1 breakthrough overt HE episode” value ([10]; All Rifaximin N = 266)?
**A.** 72 (27.1) n (%)

**Q.** What about the “Subjects with ≧1 breakthrough overt HE episode” value ([10]; Continuing Rifaximin N = 70) of the same compound?
**A.** 18 (25.7) n (%)

**Q.** What about the “Subjects with ≧1 breakthrough overt HE episode” value ([10]; New Rifaximin N = 196) of the same compound?
**A.** 54 (27.6) n (%)

**Q.** What about the “patients free of breakthrough” value ([10]; after almost 3 years) of the same compound?
**A.** approximately 60%

**Q.** What about the “subjects with 1 breakthrough HE episode” value ([10]; all rifaximin) of the same compound?
**A.** 44 subjects

**Q.** What about the “subjects with 2 breakthrough HE episodes” value ([10]; all rifaximin) of the same compound?
**A.** 18 subjects

**Q.** And the “subjects with 3 or more breakthrough HE episodes” value ([10]; all rifaximin)?
**A.** Ten

**Q.** And the “reduction in risk of breakthrough HE, continuing subjects vs 3001 placebo” value ([10]; in vivo)?
**A.** 90%

**Q.** What about the “subjects with breakthrough overt HE during rifaximin after crossover” value ([10]; in vivo) of the same compound?
**A.** 15 of 82

**Q.** And the “rate of breakthrough HE episodes adjusted for exposure” value ([10]; new rifaximin subjects)?
**A.** 0.38 events/PEY

**Q.** And the “subjects with >2 HE episodes during rifaximin therapy” value ([10]; up to 840 days, first plus second study)?
**A.** 3.6%

**Q.** What about the P-glycoprotein substrate [11] of the same compound?
**A.** substrate of P-glycoprotein; also recorded: substrate for P-glycoprotein
